Test results published in patent publication US7795458B2, “Salt of (2S, 3S)-3-[[(1S)-1-isobutoxymethyl-3-methylbutyl] carbamoyl] oxirane-2-carboxylic acid” (Nippon Chemiphar Co., Ltd, priority 2003, dated 2010).

How the values were obtained:
cathepsin = conditions: background statement; cited from earlier work
[1] = Comparative stability test (solid kept at 80° C. for three days, light-shaded and airtight; remaining substance by HPLC); type: physicochemical; conditions: for Remaining ratio(%) after 3 days at 80° C.: 10 mg solid sample, thermostat at 80° C., three days, light-shaded and airtight, HPLC; for storage stability (result in words): left at 80° C. for three days
Procedure: The crystalline Na salt of the invention (described in Example 9) was subjected to a comparative stability test. In the test, the Na salt was left at 80° C. for three days together with both the substance obtained by condensing the solution to dryness and the product collected by filtration and left at room temperature after recrystallization.
The crystalline K salt of the invention (described in Example 11) was subjected to a stability test in which the K salt was left at 80° C. for three days.
mobile phase: a mixture of 0.1 mol/L sodium dihydrogen phosphate reagent (pH: 3.0)/acetonitrile (5:2),
flow rate; controlled so that the retention time of (2S,3S)-3-[[(1S)-1-isobutoxymethyl-3-methylbutyl]-carbamoyl]oxirane-2-carboxylic acid would be approx. 13 minutes, and
As a sample, 10 mg of sodium or potassium (2S,3S)-3-[[(1S)-1-isobutoxymethyl-3-methylbutyl]carbamoyl]oxirane-2-carboxylate was weighed and placed in a test tube. After the sample was kept in a thermostat at 80° C. for three days under a light-shaded and airtight condition, the amount of remaining substance was measured by HPLC.
The same as those in Example 14.

Structure (SMILES): CC(C)COC[C@H](CC(C)C)NC(=O)[C@H]1O[C@@H]1C(=O)[O-].[Na+] [Compound A, sodium (2S,3S)-3-[[(1S)-1-isobutoxymethyl-3-methylbutyl]carbamoyl]-oxirane-2-carboxylate]
- cathepsin-inhibitory action (cathepsin): shows a cathepsin-inhibitory action

Structure (SMILES): CC(C)COC[C@H](CC(C)C)NC(=O)[C@H]1O[C@@H]1C(=O)[O-].[K+] [K salt (obtained in Example 11), potassium (2S,3S)-3-[[(1S)-1-isobutoxymethyl-3-methylbutyl]carbamoyl]oxirane-2-carboxylate]
- Remaining ratio(%) after 3 days at 80° C. [1]: 99.9%
- storage stability (result in words) [1]: excellent in storage stability

Structure (SMILES): CC(C)COC[C@H](CC(C)C)NC(=O)[C@H]1O[C@@H]1C(=O)[O-].[Na+] [Na salt (obtained according to the conventional process)] [sodium (2S,3S)-3-[[(1S)-1-isobutoxymethyl-3-methylbutyl]carbamoyl]oxirane-2-carboxylate, reference compound]
- Remaining ratio(%) after 3 days at 80° C. [1]: 13-77%

Structure (SMILES): CC(C)COC[C@H](CC(C)C)NC(=O)[C@H]1O[C@@H]1C(=O)[O-].[Na+] [Na salt (obtained in Example 9), sodium (2S,3S)-3-[[(1S)-1-isobutoxymethyl-3-methylbutyl]carbamoyl]oxirane-2-carboxylate]
- Remaining ratio(%) after 3 days at 80° C. [1]: 95-98%
- storage stability (result in words) [1]: superior to the substances for comparison in storage stability

Structure (SMILES): CC(C)COC[C@H](CC(C)C)NC(=O)[C@H]1O[C@@H]1C(=O)[O-].[Na+] [Na salt (obtained through recrystallization and drying in ai] [sodium (2S,3S)-3-[[(1S)-1-isobutoxymethyl-3-methylbutyl]carbamoyl]oxirane-2-carboxylate, reference compound]
- Remaining ratio(%) after 3 days at 80° C. [1]: 38-77%
